# Columns and labels:
# velvetleaf [1] = test: Test Example 5: herbicidal effect by foliage application, plastic box (Table 20, symbol M); assay type: in vivo, velvetleaf (Abutilon theophrasti); conditions: foliage application, 320 g/ha
# Procedure, shortened: (§1)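 Post-emergence foliar test in sterilized diluvial soil. Compound applied as water-diluted emulsion at a predetermined rate to 14-day-old plants; evaluation at three weeks.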
# green foxtail [2] = test: Test Example 4: herbicidal effect by soil treatment (Table 19, symbol G); assay type: in vivo, green foxtail (Setaria viridis)
# Procedure, shortened: (§2)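 Emulsion of test compound, water-diluted to predetermined amount, sprayed on soil after sowing (seed depth ~1.5 cm, sterilized diluvial soil). Greenhouse, 25–30° C. Effect graded at three weeks post-spray.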
# blackgrass [3] = test: Test Example 4: herbicidal effect by soil treatment (Table 19, symbol J); assay type: in vivo, blackgrass (Alopecurus myosuroides)
# Procedure, shortened: as §2
# chickweed [4] = test: Test Example 4: herbicidal effect by soil treatment (Table 19, symbol P); assay type: in vivo, common chickweed (Stellaria media); conditions: 320 g/ha
# Procedure, shortened: as §2
# windgrass [5] = test: Test Example 4: herbicidal effect by soil treatment (Table 19, symbol L); assay type: in vivo, windgrass (Apera spica-venti)
# Procedure, shortened: as §2
# persian speedwell [6] = test: Test Example 4: herbicidal effect by soil treatment (Table 19, symbol R); assay type: in vivo, Persian speedwell (Veronica persica)
# Procedure, shortened: as §2
# southern crabgrass [7] = test: Test Example 5: herbicidal effect by foliage application, plastic box (Table 20, symbol F); assay type: in vivo, southern crabgrass (Digitaria ciliaris); conditions: foliage application, 320 g/ha
# Procedure, shortened: as §1
# Italian ryegrass [8] = test: Test Example 5: herbicidal effect by foliage application, plastic box (Table 20, symbol K); assay type: in vivo, Italian ryegrass (Lolium multiflorum); conditions: foliage application, 320 g/ha
# Procedure, shortened: as §1
# late watergrass = test: Test Example 2: herbicidal activity, application during weed generation under submerged conditions (Table 17, symbol A); assay type: in vivo, late watergrass (Echinochloa oryzicola); conditions: AAH 320 g/ha; application during weed generation, submerged conditions
# Procedure, shortened: (§3)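 Herbicide emulsion, diluted with water to the chosen amount, is applied onto 4 cm floodwater over alluvial soil where the weeds were co-sown and raised at 25–30° C. Application timing: 1–2 leaves. Assessment: three weeks afterwards.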
# lambsquarters [9] = test: Test Example 4: herbicidal effect by soil treatment (Table 19, symbol O); assay type: in vivo, lambsquarters (Chenopodium album)
# Procedure, shortened: as §2
# southern crabgrass [10] = test: Test Example 4: herbicidal effect by soil treatment (Table 19, symbol F); assay type: in vivo, southern crabgrass (Digitaria ciliaris)
# Procedure, shortened: as §2
# rice flat sedge = test: Test Example 3: herbicidal effect by foliage application, Wagner pot (Table 18, symbol E); assay type: in vivo, rice flat sedge (Cyperus iria)
# Procedure, shortened: (§4)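 Plants were sown in alluvial soil held under 0.1–0.5 cm standing water and grown 14 days in a greenhouse at 25–30 °C. An emulsifiable formulation, water-diluted to the set dose, was then sprayed onto the foliage, and effects were scored three weeks later using previously defined criteria.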
# blackgrass [11] = test: Test Example 5: herbicidal effect by foliage application, plastic box (Table 20, symbol J); assay type: in vivo, blackgrass (Alopecurus myosuroides); conditions: foliage application, 320 g/ha
# Procedure, shortened: as §1
# barnyard grass [12] = test: Test Example 5: herbicidal effect by foliage application, plastic box (Table 20, symbol H); assay type: in vivo, barnyard grass (Echinochloa crus-galli); conditions: foliage application, 320 g/ha
# Procedure, shortened: as §1
# wild oat [13] = test: Test Example 5: herbicidal effect by foliage application, plastic box (Table 20, symbol I); assay type: in vivo, wild oat (Avena fatua); conditions: foliage application, 320 g/ha
# Procedure, shortened: as §1
# Japanese bulrush = test: Test Example 2: herbicidal activity, application during weed generation under submerged conditions (Table 17, symbol B); assay type: in vivo, Japanese bulrush (Schoenoplectus juncoides); conditions: AAH 320 g/ha; application during weed generation, submerged conditions
# Procedure, shortened: as §3
# barnyard grass [14] = test: Test Example 3: herbicidal effect by foliage application, Wagner pot (Table 18, symbol H); assay type: in vivo, barnyard grass (Echinochloa crus-galli)
# Procedure, shortened: as §4
# green foxtail [15] = test: Test Example 5: herbicidal effect by foliage application, plastic box (Table 20, symbol G); assay type: in vivo, green foxtail (Setaria viridis); conditions: foliage application, 320 g/ha
# Procedure, shortened: as §1
# wild oat [16] = test: Test Example 4: herbicidal effect by soil treatment (Table 19, symbol I); assay type: in vivo, wild oat (Avena fatua)
# Procedure, shortened: as §2
# persian speedwell [17] = test: Test Example 5: herbicidal effect by foliage application, plastic box (Table 20, symbol R); assay type: in vivo, Persian speedwell (Veronica persica); conditions: foliage application, 320 g/ha
# Procedure, shortened: as §1
# windgrass [18] = test: Test Example 5: herbicidal effect by foliage application, plastic box (Table 20, symbol L); assay type: in vivo, windgrass (Apera spica-venti); conditions: foliage application, 320 g/ha
# Procedure, shortened: as §1
# Chinese sprangletop = test: Test Example 3: herbicidal effect by foliage application, Wagner pot (Table 18, symbol D); assay type: in vivo, chinese sprangletop (Leptochloa chinensis)
# Procedure, shortened: as §4
# redroot pigweed [19] = test: Test Example 4: herbicidal effect by soil treatment (Table 19, symbol N); assay type: in vivo, redroot pigweed (Amaranthus retroflexus)
# Procedure, shortened: as §2
# lambsquarters [20] = test: Test Example 5: herbicidal effect by foliage application, plastic box (Table 20, symbol O); assay type: in vivo, lambsquarters (Chenopodium album); conditions: foliage application, 320 g/ha
# Procedure, shortened: as §1
# Italian ryegrass [21] = test: Test Example 4: herbicidal effect by soil treatment (Table 19, symbol K); assay type: in vivo, Italian ryegrass (Lolium multiflorum)
# Procedure, shortened: as §2
# velvetleaf [22] = test: Test Example 4: herbicidal effect by soil treatment (Table 19, symbol M); assay type: in vivo, velvetleaf (Abutilon theophrasti)
# Procedure, shortened: as §2
# oval-leafed pondweed = test: Test Example 2: herbicidal activity, application during weed generation under submerged conditions (Table 17, symbol C); assay type: in vivo, oval-leafed pondweed (Monochoria vaginalis); conditions: AAH 320 g/ha; application during weed generation, submerged conditions
# Procedure, shortened: as §3
# barnyard grass [23] = test: Test Example 4: herbicidal effect by soil treatment (Table 19, symbol H); assay type: in vivo, barnyard grass (Echinochloa crus-galli)
# Procedure, shortened: as §2
# chickweed [24] = test: Test Example 5: herbicidal effect by foliage application, plastic box (Table 20, symbol P); assay type: in vivo, common chickweed (Stellaria media); conditions: foliage application, 320 g/ha, evaluated three weeks after application
# Procedure, shortened: as §1
# redroot pigweed [25] = test: Test Example 5: herbicidal effect by foliage application, plastic box (Table 20, symbol N); assay type: in vivo, redroot pigweed (Amaranthus retroflexus); conditions: foliage application, 320 g/ha, evaluated three weeks after application
# Procedure, shortened: as §1
# [26] = evaluated three weeks after application
# [27] = amount of applied herbicide 320 g/ha
structure (smiles),measurement,setting,value
COCCOCOc1c(C)nn(C)c(=O)c1-c1c(-c2ccc(C(C)C)cc2)sc2ccc(F)cc12 [2-015],effect on velvetleaf (M),velvetleaf [1]; 3 weeks after application,5 (Herbicidal rate of 90% or more (almost completely withered))
same,"herbicidal effect rating, G: green foxtail",green foxtail [2]; 320 g/ha,0 (Herbicidal rate of 5% or less (almost no effect))
same,"herbicidal effect rating, J: blackgrass",blackgrass [3]; 320 g/ha,0 (Herbicidal rate of 5% or less (almost no effect))
same,"herbicidal effect rating, P: chickweed",chickweed [4],0 (Herbicidal rate of 5% or less (almost no effect))
same,"herbicidal effect rating, L: windgrass",windgrass [5]; 320 g/ha,0 (Herbicidal rate of 5% or less (almost no effect))
same,"herbicidal effect rating, R: persian speedwell",persian speedwell [6]; 320 g/ha,4 (Herbicidal rate of 70% or more and less than 90%)
same,effect on southern crabgrass (F),southern crabgrass [7]; 3 weeks after application,1 (Herbicidal rate of 5% or more and less than 20%)
same,effect on Italian ryegrass (K),Italian ryegrass [8]; 3 weeks after application,0 (Herbicidal rate of 5% or less (almost no effect))
same,"herbicidal effect rating, A: late watergrass",late watergrass,4 (Herbicidal rate of 70% or more and less than 90%)
same,"herbicidal effect rating, O: lambsquarters",lambsquarters [9]; 320 g/ha,2 (Herbicidal rate of 20% or more and less than 40%)
same,"herbicidal effect rating, F: southern crabgrass",southern crabgrass [10]; 320 g/ha,0 (Herbicidal rate of 5% or less (almost no effect))
same,"herbicidal effect on E (rice flat sedge), rating 0-5",rice flat sedge; 320 g/ha,5 (Herbicidal rate of 90% or more (almost completely withered))
same,effect on blackgrass (J),blackgrass [11]; 3 weeks after application,0 (Herbicidal rate of 5% or less (almost no effect))
same,effect on barnyard grass (H),barnyard grass [12]; 3 weeks after application,3 (Herbicidal rate of 40% or more and less than 70%)
same,effect on wild oat (I),wild oat [13]; 3 weeks after application,0 (Herbicidal rate of 5% or less (almost no effect))
same,"herbicidal effect rating, B: Japanese bulrush",Japanese bulrush,0 (Herbicidal rate of 5% or less (almost no effect))
same,"herbicidal effect on H (barnyard grass), rating 0-5",barnyard grass [14]; 320 g/ha,5 (Herbicidal rate of 90% or more (almost completely withered))
same,effect on green foxtail (G),green foxtail [15]; 3 weeks after application,0 (Herbicidal rate of 5% or less (almost no effect))
same,"herbicidal effect rating, I: wild oat",wild oat [16]; 320 g/ha,0 (Herbicidal rate of 5% or less (almost no effect))
same,effect on persian speedwell (R),persian speedwell [17]; 3 weeks after application,5 (Herbicidal rate of 90% or more (almost completely withered))
same,effect on windgrass (L),windgrass [18]; 3 weeks after application,4 (Herbicidal rate of 70% or more and less than 90%)
same,"herbicidal effect on D (Chinese sprangletop), rating 0-5",Chinese sprangletop; 320 g/ha,5 (Herbicidal rate of 90% or more (almost completely withered))
same,"herbicidal effect rating, N: redroot pigweed",redroot pigweed [19]; 320 g/ha,5 (Herbicidal rate of 90% or more (almost completely withered))
same,effect on lambsquarters (O),lambsquarters [20]; 3 weeks after application,5 (Herbicidal rate of 90% or more (almost completely withered))
same,"herbicidal effect rating, K: Italian ryegrass",Italian ryegrass [21]; 320 g/ha,0 (Herbicidal rate of 5% or less (almost no effect))
same,"herbicidal effect rating, M: velvetleaf",velvetleaf [22]; 320 g/ha,0 (Herbicidal rate of 5% or less (almost no effect))
same,"herbicidal effect rating, C: oval-leafed pondweed",oval-leafed pondweed,0 (Herbicidal rate of 5% or less (almost no effect))
same,"herbicidal effect rating, H: barnyard grass",barnyard grass [23]; 320 g/ha,0 (Herbicidal rate of 5% or less (almost no effect))
CCCSc1ccc(-c2sc3ccc(F)cc3c2-c2c(O)c(C)nn(C)c2=O)cc1 [2-248],herbicidal effect on M: velvetleaf (criteria 0-5),velvetleaf [1]; [26],5 (Herbicidal rate of 90% or more (almost completely withered))
same,herbicidal effect on G: green foxtail,green foxtail [2]; [27],4 (Herbicidal rate of 70% or more and less than 90%)
same,herbicidal effect on P: chickweed (criteria 0-5),chickweed [24],5 (Herbicidal rate of 90% or more (almost completely withered))
same,herbicidal effect on J: blackgrass,blackgrass [3]; [27],0 (Herbicidal rate of 5% or less (almost no effect))
same,herbicidal effect on L: windgrass,windgrass [5]; [27],0 (Herbicidal rate of 5% or less (almost no effect))
same,herbicidal effect on R: persian speedwell,persian speedwell [6]; [27],4 (Herbicidal rate of 70% or more and less than 90%)
same,herbicidal effect on F: southern crabgrass (criteria 0-5),southern crabgrass [7]; [26],5 (Herbicidal rate of 90% or more (almost completely withered))
same,herbicidal effect on K: Italian ryegrass (criteria 0-5),Italian ryegrass [8]; [26],4 (Herbicidal rate of 70% or more and less than 90%)
same,"herbicidal effect rating, A: late watergrass",late watergrass,4 (Herbicidal rate of 70% or more and less than 90%)
same,herbicidal effect on O: lambsquarters,lambsquarters [9]; [27],4 (Herbicidal rate of 70% or more and less than 90%)
same,herbicidal effect on F: southern crabgrass,southern crabgrass [10]; [27],1 (Herbicidal rate of 5% or more and less than 20%)
same,herbicidal effect on E: rice flat sedge,rice flat sedge; [27],4 (Herbicidal rate of 70% or more and less than 90%)
same,herbicidal effect on J: blackgrass (criteria 0-5),blackgrass [11]; [26],4 (Herbicidal rate of 70% or more and less than 90%)
same,herbicidal effect on H: barnyard grass (criteria 0-5),barnyard grass [12]; [26],5 (Herbicidal rate of 90% or more (almost completely withered))
same,herbicidal effect on I: wild oat (criteria 0-5),wild oat [13]; [26],5 (Herbicidal rate of 90% or more (almost completely withered))
same,"herbicidal effect rating, B: Japanese bulrush",Japanese bulrush,0 (Herbicidal rate of 5% or less (almost no effect))
same,herbicidal effect on H: barnyard grass,barnyard grass [14]; [27],5 (Herbicidal rate of 90% or more (almost completely withered))
same,herbicidal effect on G: green foxtail (criteria 0-5),green foxtail [15]; [26],5 (Herbicidal rate of 90% or more (almost completely withered))
same,herbicidal effect on I: wild oat,wild oat [16]; [27],0 (Herbicidal rate of 5% or less (almost no effect))
same,herbicidal effect on R: persian speedwell (criteria 0-5),persian speedwell [17]; [26],5 (Herbicidal rate of 90% or more (almost completely withered))
same,herbicidal effect on L: windgrass (criteria 0-5),windgrass [18]; [26],5 (Herbicidal rate of 90% or more (almost completely withered))
same,herbicidal effect on D: Chinese sprangletop,Chinese sprangletop; [27],5 (Herbicidal rate of 90% or more (almost completely withered))
same,herbicidal effect on N: redroot pigweed,redroot pigweed [19]; [27],5 (Herbicidal rate of 90% or more (almost completely withered))
same,herbicidal effect on O: lambsquarters (criteria 0-5),lambsquarters [20]; [26],5 (Herbicidal rate of 90% or more (almost completely withered))
same,herbicidal effect on K: Italian ryegrass,Italian ryegrass [21]; [27],0 (Herbicidal rate of 5% or less (almost no effect))
same,herbicidal effect on M: velvetleaf,velvetleaf [22]; [27],3 (Herbicidal rate of 40% or more and less than 70%)
same,"herbicidal effect rating, C: oval-leafed pondweed",oval-leafed pondweed,0 (Herbicidal rate of 5% or less (almost no effect))
same,herbicidal effect on N: redroot pigweed (criteria 0-5),redroot pigweed [25],5 (Herbicidal rate of 90% or more (almost completely withered))
same,herbicidal effect on H: barnyard grass,barnyard grass [23]; [27],2 (Herbicidal rate of 20% or more and less than 40%)

# Reference: patent publication US20230085307A1, “PYRIDAZINONE COMPOUND AND HERBICIDE” (NISSAN CHEMICAL CORPORATION, priority 2019, published 2023)
